In patent publication US7414131B2, “Bicycloheteroarylamine compounds as ion channel ligands and uses thereof” (Renovis, Inc., priority 2003, dated 2008):
Structures can show the parent of a compound that is named as a salt.

Assays:
[1] = molecular target: hVR1 (Homo sapiens, UniProt Q8NER1); assay: High throughput calcium imaging assay (Fura2, Flex Station) of VR1 antagonists; type: cell-based; details: HEK 293 cells expressing hVR1; for % Inhibition @ 1 μM: 1 μM compound, inhibition of calcium ion influx; for IC50: concentrations 10 nM to 3.3 μM
hVR1, sequence (Q8NER1 whole entry): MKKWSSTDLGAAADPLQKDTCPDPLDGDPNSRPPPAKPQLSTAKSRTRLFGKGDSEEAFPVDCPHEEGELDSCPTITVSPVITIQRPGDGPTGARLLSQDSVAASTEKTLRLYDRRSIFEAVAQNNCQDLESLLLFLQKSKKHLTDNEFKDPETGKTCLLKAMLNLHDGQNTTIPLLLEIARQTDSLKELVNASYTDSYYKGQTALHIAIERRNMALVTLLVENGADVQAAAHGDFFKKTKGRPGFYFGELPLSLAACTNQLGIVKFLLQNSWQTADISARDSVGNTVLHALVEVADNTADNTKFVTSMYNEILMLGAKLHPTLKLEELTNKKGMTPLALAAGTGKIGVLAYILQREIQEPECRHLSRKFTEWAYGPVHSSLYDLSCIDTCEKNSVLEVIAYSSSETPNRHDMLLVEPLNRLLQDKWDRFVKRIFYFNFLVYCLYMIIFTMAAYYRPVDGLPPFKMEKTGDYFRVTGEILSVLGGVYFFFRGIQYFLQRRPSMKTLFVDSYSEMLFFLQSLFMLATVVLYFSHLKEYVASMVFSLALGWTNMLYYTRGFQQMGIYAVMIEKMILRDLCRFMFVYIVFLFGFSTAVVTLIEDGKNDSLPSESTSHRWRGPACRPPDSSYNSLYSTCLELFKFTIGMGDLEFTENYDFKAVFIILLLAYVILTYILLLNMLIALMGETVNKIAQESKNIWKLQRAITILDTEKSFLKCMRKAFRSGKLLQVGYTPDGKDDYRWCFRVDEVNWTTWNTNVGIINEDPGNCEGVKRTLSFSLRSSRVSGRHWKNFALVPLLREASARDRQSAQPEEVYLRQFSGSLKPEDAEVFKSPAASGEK
Text: VR1 protein is a heat-gated cation channel that exchanges about 10 calcium ions for every sodium ion resulting in neuronal membrane depolarization and elevated intracellular calcium ion levels. Therefore the functional activity of compounds at the VR1 receptor may be determined by measuring changes in intracellular calcium levels in 293 cells expressing capsaicin-insensitive VR1 receptor variants. A dual wavelength ratiometric dye, Fura2, was used as an indicator of relative levels of calcium ions in a 96 well format using a bench top scanning fluorometer with integrated fluidics and temperature control (Flex Station, Molecular Devices).
A dual wavelength ratiometric dye, Fura2, was used as an indicator of relative levels of [Ca2+] in a 96 well format using a bench top scanning fluorometer with integrated fluidics and temperature control (Flex Station, Molecular Devices).
HEK 293 cells expressing hVR1 were grown on PDL coated 96-well black-walled plates, in the presence of a DMEM medium containing 5% Penstrep, 5% Glutamax, 200 ug/mL Hygromycin, 5 μg/mL Blasticide and 10% heat inactivated FBS. Prior to assay, the cells were loaded with 5 μg/mL Fura2 in normal saline solution at 37° C. for 40 minutes. Cells were then washed with normal saline to remove the dye.
The assay consists of two stages; a pre-treatment phase followed by a treatment phase. In the pretreatment phase, 50 μl of a compound solution was added to the cells. Immediately following, 50 μl of the test compound in the presence of agonist (a saline solution plus 10 mM citric acid bufferd to pH 5.7 with HCl) was added. Fura2 was excited at […] to indicate relative calcium concentration. Changes in wavelength measurements were made throughout the course of the experiment in 4 second intervals over a period of 3 minutes. The fluorescence ratio from the excitations at […] was recorded for analysis. Responses were measured as peak fluorescence ratio after compound-agonist addition minus baseline fluorescence ratio prior to treatment and were calculated for each concentration tested using the SoftMaxPro software. Data was expressed as percentage inhibition calculated as follows: […]
A dose response curve was then determined, from which the IC50 of each compound was calculated.

[2] = Pharmacokinetic profile after intravenous and oral administration in rats; type: in vivo, rat; details: IV 1 mg/kg, oral 5 mg/kg; for bioavailability / Vd / Cmax / Tmax: male, Sprague-Dawley; for bioavailability / Vd: plasma; for bioavailability / Vd / Cls (L/hrKg) / T/2: rat; for Vd / Cmax / Tmax / Cls (L/hrKg) / T/2: route of this column not given; for Cmax / Tmax: rat plasma
Method: The pharmacokinetic profile of Compound 1 was evaluated following intravenous and oral administration in rats. Sprague-Dawley male rats obtained from Charles River, San Diego, Calif. were acclimated for 24 hours.
Compounds of this invention were formulated at a concentration of 0.5 mg/mL for IV administration at a 1 mg/kg dose and 1 mg/mL for oral administration at a 5 mg/kg dose. All animals were weighed before dosing. The body weight was used to calculate the actual dose for each animal. The intravenous dose was administered through the jugular vein catheter in less than 1 minute. The oral dose volume was 1.5 mL for all PO rats administered through oral lavage.
For IV dosing, blood samples were collected using a pre-heparinized syringe via the caproic artery catheter before dosing and at t=2, 5, 15, 30, 60, 120, 180, 360, and 480 minutes post dosing. For PO dosing, blood samples were collected using a pre-heparinized syringe via the caproic artery catheter before dosing and at t=5, 15, 30, 60, 120, 180, 360, and 480 minutes post dosing. 250 uL of blood was obtained at each time point from each animal. Equal volumes of 0.9% normal saline were replaced to prevent dehydration. The whole blood samples were maintained on ice until centrifugation. Blood samples were centrifuged at 14,000 rpm for 10 minutes at 4° C., and the upper plasma layer was transferred into a clean vial and store at −80° C.

[3] = test system: Sprague-Dawley male rats; assay: Carrageenan-induced thermal hyperalgesia, latency of paw withdrawal; type: in vivo; details: rat, carrageenan hindpaw; 30 mg/kg dosed one hour after carrageenan; tested two hours later
Method: Sprague-Dawley male rats obtained from Charles River, San Diego, Calif. were purchased at 150-175 g, and held for at least one week before testing. Pain was induced by injecting 100 μl of 2% carrageenan in 0.9% saline sub-Q into the right ventral hindpaw while the animals were under isofluorane anesthesia. Animals were then dosed one hour after with a concentration of 30 mg/kg of Compound 1. Two hours later, after acclimatizing in testing chambers for 20-30 minutes, animals were tested on both hindpaws for latency of paw withdrawal using a thermal testing apparatus. 2-3 trials were conducted with 10 minutes between trials. […] The figure depicts the time in seconds until animals withdraw from thermal stimulation at baseline and two hours after administration of delivery vehicle, control compound, and the dose of 30 mg/kg of Compound 1.

Fc1ccc(Nc2ncnc3c2CCN(c2ncccc2Cl)C3)cc1 [Example 19, 7-(3-Chloropyridin-2-yl)-N-(4-fluorophenyl)-5,6,7,8-tetrahydropyrido[3,4-d]pyrimidin-4-amine]
% Inhibition @ 1 μM [1]: +++ (“+++” compound exhibited 51-75% inhibition of calcium ion influx induced by capsaicin stimulation.)
bioavailability [2]: 5.66%
Vd [2]: 12.2 L/kg
Cmax [2]: 24.5 ng/mL
Tmax [2]: 40.8 min
Cls (L/hrKg) [2]: 4.47 L/hrKg
T/2 [2]: 1.9 h

CS(=O)(=O)c1nc2c(c(Nc3ccc(C(F)(F)F)cc3)n1)CCN(c1ncccc1Cl)C2 [Example 25, [7-(3-Chloro-pyridin-2-yl)-2-methanesulfonyl-5,6,7,8-tetrahydro-pyrido[3,4-d]pyrimidin-4-yl]-(4-trifluoromethyl-phenyl)-amine]
% Inhibition @ 1 μM [1]: IA (IA inactive.)

FC(F)(F)c1ccc(Nc2ncnc3c2CCN(c2ncccc2Cl)C3)cc1 [Example 1, 7-(3-Chloropyridin-2-yl)-N-(4-(trifluoromethyl)phenyl)-5,6,7,8-tetrahydropyrido[3,4-d]pyrimidin-4-amine]
latency of paw withdrawal (reversal of thermal hyperalgesia) [3]: significantly increased latency of paw withdrawal

Cc1ccccc1N1CCc2c(ncnc2Nc2ccc(C(F)(F)F)cc2)C1 [Example 45, N-(4-(Trifluoromethyl)phenyl)-5,6,7,8-tetrahydro-7-o-tolylpyrido[3,4-d]pyrimidin-4-amine]
% Inhibition @ 1 μM [1]: IA (IA inactive.)

CC(C)(C)c1ccc(Nc2ncnc3c2CCN(Cc2ccccc2)C3)cc1 [Example 2, N-(4-tert-Butylphenyl)-7-benzyl-5,6,7,8-tetrahydropyrido[3,4-d]pyrimidin-4-amine]
% Inhibition @ 1 μM [1]: IA (IA inactive.)

Cc1ccc(N2CCc3c(ncnc3Nc3ccc(C(F)(F)F)cc3)C2)cc1 [Example 47, N-(4-(Trifluoromethyl)phenyl)-5,6,7,8-tetrahydro-7-p-tolylpyrido[3,4-d]pyrimidin-4-amine]
% Inhibition @ 1 μM [1]: IA (IA inactive.)

Clc1cccnc1N1CCc2c(ncnc2Nc2ccccc2)C1 [Example 18, 7-(3-Chloropyridin-2-yl)-5,6,7,8-tetrahydro-N-phenylpyrido[3,4-d]pyrimidin-4-amine]
% Inhibition @ 1 μM [1]: ++ (“++” compound exhibited 26-50% inhibition of calcium ion influx induced by capsaicin stimulation.)
bioavailability [2]: 4.07%
Vd [2]: 18 L/kg
Cmax [2]: 44.6 ng/mL
Tmax [2]: 55.2 min
Cls (L/hrKg) [2]: 4.45 L/hrKg
T/2 [2]: 2.55 h

CN(C)CCNc1nc2c(c(Nc3ccc(C(F)(F)F)cc3)n1)CCN(c1ncccc1Cl)C2 [Example 32, 7-(3-Chloropyridin-2-yl)-N^2-(2-(dimethylamino)ethyl)-N^4-(4-(trifluoromethyl)phenyl)-5,6,7,8-tetrahydropyrido[3,4-d]pyrimidine-2,4-diamine]
% Inhibition @ 1 μM [1]: IA (IA inactive.)

CS(=O)(=O)c1cccnc1N1CCc2c(ncnc2Nc2ccc(S(=O)(=O)C(F)(F)F)cc2)C1 [Example 23, 5,6,7,8-tetrahydro-7-(3-(methylsulfonyl)pyridin-2-yl)-N-(4-(trifluoromethylsulfonyl)phenyl)pyrido[3,4-d]pyrimidin-4-amine]
% Inhibition @ 1 μM [1]: + (“+” compound exhibited 0-25% inhibition of calcium ion influx induced by capsaicin stimulation.)

FC(F)(F)CCN1CCc2c(ncnc2Nc2ccc3c(c2)OCCO3)C1 [Example 7, (2,3-Dihydro-benzo[1,4]dioxin-6-yl)-[7-(3,3,3-trifluoro-propyl)-5,6,7,8-tetrahydro-pyrido[3,4-d]pyrimidin-4-yl]-amine hydrochloride]
% Inhibition @ 1 μM [1]: IA (IA inactive.)

CC(C)S(=O)(=O)c1cccnc1N1CCc2c(ncnc2Nc2ccc(C(F)(F)F)cc2)C1 [Example 16, N-(4-(Trifluoromethyl)phenyl)-5,6,7,8-tetrahydro-7-(3-(isopropylsulfonyl)pyridin-2-yl)pyrido[3,4-d]pyrimidin-4-amine]
% Inhibition @ 1 μM [1]: IA (IA inactive.)

COCc1nc2c(c(Nc3ccc(C(F)(F)F)cc3)n1)CCN(Cc1ccccc1)C2 [Example 31, 7-Benzyl-N-(4-(trifluoromethyl)phenyl)-5,6,7,8-tetrahydro-2-(methoxymethyl)pyrido[3,4-d]pyrimidin-4-amine]
% Inhibition @ 1 μM [1]: IA (IA inactive.)

FC(F)(F)c1ccc(Nc2ncnc3c2CCN(c2ccccc2)C3)cc1 [Example 44, N-(4-(Trifluoromethyl)phenyl)-5,6,7,8-tetrahydro-7-phenylpyrido[3,4-d]pyrimidin-4-amine]
% Inhibition @ 1 μM [1]: IA (IA inactive.)

FC(F)(F)c1ccc(Nc2ncnc3c2CCN(c2ncccc2C(F)(F)F)C3)cc1 [Example 12, (4-Trifluoromethyl-phenyl)-[7-(3-trifluoromethyl-pyridin-2-yl)-5,6,7,8-tetrahydro-pyrido[3,4-d]pyrimidin-4-yl]-amine]
IC50 [1]: > 1000 nM

Cc1cccc(N2CCc3c(ncnc3Nc3ccc4c(c3)OCCO4)C2)c1 [Example 36, 5,6,7,8-Tetrahydro-N-(2,3-dihydrobenzo[b][1,4]dioxin-6-yl)-7-m-tolylpyrido[3,4-d]pyrimidin-4-amine]
IC50 [1]: 501 to 1000 nM

FC(F)(F)c1cccc(Nc2ncnc3c2CCN(c2ncccc2Cl)C3)c1 [Example 43, 7-(3-Chloropyridin-2-yl)-N-(3-(trifluoromethyl)phenyl)-5,6,7,8-tetrahydropyrido[3,4-d]pyrimidin-4-amine]
% Inhibition @ 1 μM [1]: IA (IA inactive.)

c1ccc(CN2CCc3c(ncnc3Nc3cnc4ccccc4c3)C2)cc1 [Example 38, 7-Benzyl-5,6,7,8-tetrahydro-N-(quinolin-3-yl)pyrido[3,4-d]pyrimidin-4-amine]
% Inhibition @ 1 μM [1]: IA (IA inactive.)

FC(F)Oc1ccc(Nc2ncnc3c2CCN(c2ncccc2Cl)C3)cc1 [Example 15, 7-(3-Chloropyridin-2-yl)-N-(4-(difluoromethoxy)phenyl)-5,6,7,8-tetrahydropyrido[3,4-d]pyrimidin-4-amine]
% Inhibition @ 1 μM [1]: IA (IA inactive.)
IC50 [1]: > 1000 nM

O=S(=O)(c1ccc(Nc2ncnc3c2CCN(c2ncccc2Cl)C3)cc1)C(F)(F)F [Example 22, 7-(3-Chloropyridin-2-yl)-5,6,7,8-tetrahydro-N-(4-(trifluoromethylsulfonyl)phenyl)pyrido[3,4-d]pyrimidin-4-amine]
% Inhibition @ 1 μM [1]: IA (IA inactive.)

c1ccc(CN2CCc3c(ncnc3Nc3ccc4c(c3)OCCO4)C2)cc1 [Example 30, (7-Benzyl-5,6,7,8-tetrahydro-pyrido[3,4-d]pyrimidin-4-yl)-(2,3-dihydro-benzo[1,4]dioxin-6-yl)-amine]
% Inhibition @ 1 μM [1]: IA (IA inactive.)
